Source: US11178868B2, “Alkynyl-substituted 3-phenylpyrrolidine-2,4-diones and use thereof as herbicides” (Bayer CropScience Aktiengesellschaft, priority 2015, dated 2021)

Assays:
Type in all cases: in vivo
[1] = tested on: Alopecurus myosuroides; experiment: Pre-emergence herbicidal effect; details: scored visually after 3 weeks
Description: (§1) Seeds of monocotyledonous and dicotyledonous weed plants and crop plants are laid out in wood-fibre pots in sandy loam and covered with soil. The compounds according to the invention formulated in the form of wettable powders (WP) or as emulsion concentrates (EC) are then applied as aqueous suspension or emulsion at a water application rate of 600 to 800 I/ha (converted) with the addition of 0.2% wetting agent to the surface of the covering soil. After the treatment, the pots are placed in a greenhouse and kept under good growth conditions for the trial plants. The damage to the test plants is scored visually after a test period of 3 weeks by comparison with untreated controls (herbicidal activity in percent (%): 100% activity=the plants have died, 0% activity=like control plants).

[2] = tested on: Echinochloa crus-galli; experiment: Pre-emergence herbicidal effect; details: scored visually after 3 weeks
Description: as §1

[3] = tested on: Lolium multiflorum; experiment: Pre-emergence herbicidal effect; details: scored visually after 3 weeks
Description: as §1

[4] = tested on: Cyperus esculentus; experiment: Pre-emergence herbicidal effect; details: scored visually after 3 weeks
Description: as §1

[5] = tested on: Avena fatua; experiment: Pre-emergence herbicidal effect; details: scored visually after 3 weeks
Description: as §1

[6] = tested on: Setaria viridis; experiment: Pre-emergence herbicidal effect; details: scored visually after 3 weeks
Description: as §1

[7] = tested on: Alopecurus myosuroides; experiment: Post-emergence herbicidal effect; details: assessed visually after about 3 weeks
Procedure: (§2) Seeds of monocotyledonous and dicotyledonous weed and crop plants are laid out in sandy loam in wood-fibre pots, covered with soil and cultivated in a greenhouse under good growth conditions. 2 to 3 weeks after sowing, the test plants are treated at the one-leaf stage. The compounds according to the invention, formulated in the form of wettable powders (WP) or as emulsion concentrates (EC), are then sprayed as aqueous suspension or emulsion at a water application rate of 600 to 800 I/ha (converted) with the addition of 0.2% of wetting agent onto the green parts of the plants. After the test plants have been left to stand in the greenhouse under optimal growth conditions for about 3 weeks, the action of the preparations is assessed visually in comparison to untreated controls (herbicidal action in percent (%): 100% activity=the plants have died, 0% activity=like control plants).

[8] = tested on: Echinochloa crus-galli; experiment: Post-emergence herbicidal effect; details: assessed visually after about 3 weeks
Procedure: as §2

[9] = tested on: Lolium multiflorum; experiment: Post-emergence herbicidal effect; details: assessed visually after about 3 weeks
Procedure: as §2

[10] = tested on: Avena fatua; experiment: Post-emergence herbicidal effect; details: assessed visually after about 3 weeks
Procedure: as §2

[11] = tested on: Setaria viridis; experiment: Post-emergence herbicidal effect; details: assessed visually after about 3 weeks
Procedure: as §2

[12] = tested on: Amaranthus retroflexus; experiment: Post-emergence herbicidal effect; details: assessed visually after about 3 weeks
Procedure: as §2

[13] = tested on: Polygonum convolvulus; experiment: Post-emergence herbicidal effect; details: 80 g a.i./ha, assessed visually after about 3 weeks
Procedure: as §2

Row | SMILES | Herbicidal effect against [%] ALOMY ([1]; 80 g a.i./ha) [%] | Herbicidal effect against [%] ALOMY ([1]; 320 g a.i./ha) [%] | Herbicidal effect against [%] ECHCG ([2]; 80 g a.i./ha) [%] | Herbicidal effect against [%] ECHCG ([2]; 320 g a.i./ha) [%] | Herbicidal effect against [%] LOLMU ([3]; 80 g a.i./ha) [%] | Herbicidal effect against [%] LOLMU ([3]; 320 g a.i./ha) [%] | Herbicidal effect against [%] CYPES ([4]; 320 g a.i./ha) [%] | Herbicidal effect against [%] AVEFA ([5]; 80 g a.i./ha) [%] | Herbicidal effect against [%] AVEFA ([5]; 320 g a.i./ha) [%] | Herbicidal effect against [%] SETVI ([6]; 80 g a.i./ha) [%] | Herbicidal effect against [%] SETVI ([6]; 320 g a.i./ha) [%] | Herbicidal effect against [%] ALOMY ([7]; 20 g a.i./ha) [%] | Herbicidal effect against [%] ALOMY ([7]; 80 g a.i./ha) [%] | Herbicidal effect against [%] ECHCG ([8]; 20 g a.i./ha) [%] | Herbicidal effect against [%] ECHCG ([8]; 80 g a.i./ha) [%] | Herbicidal effect against [%] LOLMU ([9]; 20 g a.i./ha) [%] | Herbicidal effect against [%] LOLMU ([9]; 80 g a.i./ha) [%] | Herbicidal effect against [%] AVEFA ([10]; 80 g a.i./ha) [%] | Herbicidal effect against [%] SETVI ([11]; 20 g a.i./ha) [%] | Herbicidal effect against [%] SETVI ([11]; 80 g a.i./ha) [%] | other results
1 | CC#Cc1cc(C)c(C2=C(O)C3(CCCC(OCCOC)C3)NC2=O)c(CC)c1 (stereo not shown) [Example D8] | 100 | 100 | 100 | 100 | 100 | 100 | 100 | 100 | 100 | 100 | 100 | 100 | 100 | 100 | 100 | 100 | 100 | 100 | 100 | 100 | Herbicidal effect against [%] AVEFA ([10]; 20 g a.i./ha): 100%
2 | C#Cc1cc(C)c(C2=C(O)C3(CCCC(OCCCC)C3)NC2=O)c(C)c1 (stereo not shown) [Example D4] | – | – | – | 100 | – | 80 | 100 | – | – | – | 80 | – | – | – | – | – | – | – | – | – | –
3 | CC#Cc1cc(CC)c(C2=C(OC(=O)OCC)C3(CCCC(OCC)C3)NC2=O)c(CC)c1 (single isomer, unassigned) [Example P4] | 100 | 100 | 100 | 100 | 100 | 100 | – | 100 | 100 | 100 | 100 | – | 100 | 100 | 100 | 100 | 100 | 100 | 100 | 100 | Herbicidal effect against [%] AMARE ([12]; 80 g a.i./ha): 80%
4 | CC#Cc1cc(C)c(C2=C(OC(=O)OCC)C3(CCCC(OCCOC)C3)NC2=O)c(CC)c1 (stereo not shown) [Example P13] | 100 | 100 | 100 | 100 | 100 | 100 | 90 | 100 | 100 | 100 | 100 | 100 | 100 | 100 | 100 | 100 | 100 | 100 | 100 | 100 | Herbicidal effect against [%] AVEFA ([10]; 20 g a.i./ha): 100%
5 | CC#Cc1cc(C)c(C2=C(OC(=O)OCC)C3(CCCC(OCCOC)C3)NC2=O)c(C)c1 (stereo not shown) [Example P15] | 100 | 100 | 100 | 100 | 100 | 100 | – | 100 | 100 | 100 | 100 | 100 | 100 | 100 | 100 | 100 | 100 | 100 | 100 | 100 | Herbicidal effect against [%] AMARE ([12]; 20 g a.i./ha): 80%; Herbicidal effect against [%] AMARE ([12]; 80 g a.i./ha): 80%; Herbicidal effect against [%] POLCO [13]: 80%; Herbicidal effect against [%] AVEFA ([10]; 20 g a.i./ha): 100%
6 | CC#Cc1cc(C)c(C2=C(OC(=O)OCC)C3(CCCC(OCC)C3)NC2=O)c(CC)c1 (stereo not shown) [Example P1] | 100 | 100 | 100 | 100 | 100 | 100 | 100 | 80 | 100 | 100 | 100 | – | – | – | – | – | – | – | – | 100 | Herbicidal effect against [%] CYPES ([4]; 80 g a.i./ha): 100%
7 | CC#Cc1cc(C)c(C2=C(OC(=O)OC)C3(CCCC(OCCOC)C3)NC2=O)c(C)c1 (stereo not shown) [Example P16] | 100 | 100 | 100 | 100 | 100 | 100 | – | 100 | 100 | – | – | 100 | 100 | 100 | 100 | 100 | 100 | 100 | 100 | 100 | Herbicidal effect against [%] AMARE ([12]; 20 g a.i./ha): 80%; Herbicidal effect against [%] AMARE ([12]; 80 g a.i./ha): 80%; Herbicidal effect against [%] AVEFA ([10]; 20 g a.i./ha): 100%
8 | CC#Cc1cc(C)c(C2=C(O)C3(CCCC(OCCOC)C3)NC2=O)c(C)c1 (stereo not shown) [Example D6] | 100 | 100 | 100 | 100 | 100 | 100 | 90 | 100 | 100 | 100 | 100 | 100 | 100 | 100 | 100 | 100 | 100 | 100 | 100 | 100 | Herbicidal effect against [%] AMARE ([12]; 20 g a.i./ha): 80%; Herbicidal effect against [%] AMARE ([12]; 80 g a.i./ha): 80%; Herbicidal effect against [%] POLCO [13]: 80%; Herbicidal effect against [%] AVEFA ([10]; 20 g a.i./ha): 100%
